# Source: US20090197955A1, “METHODS OF IMPROVING DHA DEPOSITION AND RELATED FUNCTION AND/OR DEVELOPMENT” (Monsanto Company, priority 2008, published 2009)
# Tests used:
# [1] = Heart phospholipid fatty acid composition of pigs fed SDA; assay type: in vivo; settings: for Average heart DHA level, percent of total fatty acids / Average heart EPA level, percent of total fatty acids / Average heart SDA level, percent of total fatty acids: 35 days
# Description: After completion of the feeding phase, animals were slaughtered and tissues were collected for evaluation. A sample of brain was obtained by making a cup from the occipital condyle at the base of the skull to the back of the eye. A portion of the brain from the cerebral cortex, and some of the mid brain was collected. About 1 g of frozen heart or brain tissue was pulverized in a stainless steel mortar and pestle maintained at −70° C. It was then suspended in 2 mL of ice-cold saline and sonicated on ice to thoroughly disperse the tissue. The lipids were extracted with methylene chloride:methanol. The PL fractions were isolated by thin layer chromatography and methylated for 10 minutes in BF3-methanol at 100° C. After extraction of the fatty acid methyl esters (FAME) with hexane:water, their composition was analyzed in a GC2010 (Shimadzu Scientific Instruments, Columbia, Md.) using a fused silica capillary columns (SP-2560, 100 m length, 0.25 mm internal diameter, 0.25 um film thickness, Supelco, Bellefonte, Pa.). A weighed external standard fatty acid (FA) mixture (GLC727, NuCheck Prep, Elysian, Minn.) was included to correct for potential differences in FA response factors. The response factor for palmitic acid of is assumed to be 1.0. Results were expressed as a percent of total identified FA (for composition endpoints) and as mg FA/g tissue.
# [2] = prior studies; cited from earlier work
structure (smiles),measurement,setting,value
"CC/C=C\C/C=C\C/C=C\C/C=C\CCCCC(=O)O [SDA, stearidonic acid]","Average heart DHA level, percent of total fatty acids",[1]; SDA 0.2%,0.49%
same,"Average heart EPA level, percent of total fatty acids",[1]; SDA 0.2%,1.82%
same,"Average heart SDA level, percent of total fatty acids",[1]; SDA 0.2%,0.05%
same,"Average heart DHA level, percent of total fatty acids",[1]; SDA 0.4%,0.42%
same,"Average heart EPA level, percent of total fatty acids",[1]; SDA 0.4%,3.86%
same,"Average heart SDA level, percent of total fatty acids",[1]; SDA 0.4%,0.13%
same,"Average heart DHA level, percent of total fatty acids",[1]; SDA 0.6%,0.57%
same,"Average heart EPA level, percent of total fatty acids",[1]; SDA 0.6%,4.83%
same,"Average heart SDA level, percent of total fatty acids",[1]; SDA 0.6%,0.19%
same,"Average heart DHA level, percent of total fatty acids",[1]; SDA 0.8%,0.62%
same,"Average heart EPA level, percent of total fatty acids",[1]; SDA 0.8%,6.71%
same,"Average heart SDA level, percent of total fatty acids",[1]; SDA 0.8%,0.36%
same,"Dose response for deposition of SDA, EPA and DHA in heart phospholipids",[1]; regression analysis on the mean response at each dose level,statistically significant (p<0.05)
same,DHA concentrations in blood or tissues after feeding SDA,[2],failed to find evidence of increased DHA concentrations
